From patent publication US10046005B2, “Composition and method of use for combinations of anti-viral protease, polymerase inhibitors and natural bioactive compounds in the treatment of hepatitis C infection” (priority 2014, dated 2018)

Legend:
[1] = test system: HCV; experiment: HCV viral entry into human host cells; assay type: cell-based
[2] = Dissolution of Catvira film coated tablets (Ribavirin and Sofosbuvir released); assay type: physicochemical
Experimental: • 1.1. Description: Yellow to deep yellow, oblong, biconvex, film coated tablets • 1.2. Determination of Average of Weight: (Limit: 1000 mg±5%) Proceed as BP2014 • 1.3. Determination of Disintegration Time: (Limit: NMT 30 min) Proceed as USP 35 • 1.4. Determination of Dissolution test for Sofosbuvir and Ribavirin:— Conditions of Dissolution:— • USP Apparatus: II (Paddle) • Speed: […] & Materials:— • Methanol HPLC Grade. • Acetonitrile HPLC Grade • Tetrahydrofuran HPLC Grade. • Ammonium acetate • Sofosbuvir and Ribavirin working standard. Apparatus & Equipement:— • Calibrated Analytical balance accurate to±0.1 mg • HPLC:—Waters UV detector or equivalent • Column: Symmetry (C18 (5 μm) 4.6×250 mm) or equivalent. • Sonicator with temperature control • Volumetric flasks • Pipettes class A Chromatographic Conditions:— • Column: Symmetry (C18 (5 μm) 4.6×250 mm) or equivalent. • Flow rate: 0.8 ml/min. • Detector: UV at λ242 nm • Injection volume: 10 μl • Mobile phase: (Acetonitrile: Tetrahydrofuran: Ammonium Acetate) (10:40:50) • Acetate Buffer: into 1000 ml volumetric flask, weight 1 gm of Ammonium Acetate buffer, add 900 ml purified water shake to dissolve then complete to the volume by the same solvent, adjust pH 3.5 by Glacial Acetic acid. […]

Structure (SMILES)	Dissolution ([2]; pH 1.2, 5 min)	Dissolution ([2]; pH 1.2, 10 min)	Dissolution ([2]; pH 1.2, 15 min)	Dissolution ([2]; pH 1.2, 20 min)	Dissolution ([2]; pH 1.2, 30 min)	Dissolution ([2]; pH 1.2, 45 min)	Dissolution ([2]; pH 1.2, 60 min)	Dissolution ([2]; pH 1.2, 90 min)	Dissolution ([2]; pH 4.5, 5 min)	Dissolution ([2]; pH 4.5, 10 min)	Dissolution ([2]; pH 4.5, 15 min)	Dissolution ([2]; pH 4.5, 20 min)	Dissolution ([2]; pH 4.5, 30 min)	Dissolution ([2]; pH 4.5, 45 min)	Dissolution ([2]; pH 4.5, 60 min)	Dissolution ([2]; pH 4.5, 90 min)	Dissolution ([2]; pH 6.8, 5 min)	Dissolution ([2]; pH 6.8, 10 min)	Dissolution ([2]; pH 6.8, 15 min)	Dissolution ([2]; pH 6.8, 20 min)	other results
O=C(O[C@@H]1Cc2c(O)cc(O)cc2O[C@@H]1c1cc(O)c(O)c(O)c1)c1cc(O)c(O)c(O)c1 [EGCG, (−)-Epigallocatechin Gallate]																					HCV viral entry into human host cells [1]: effectively suppressed
NC(=O)c1ncn([C@@H]2O[C@H](CO)[C@@H](O)[C@H]2O)n1 [Ribavirin, 1-[(2R,3R,4S,5R)-3,4-dihydroxy-5-(hydroxymethyl)oxolan-2-yl]-1H-1,2,4-triazole-3-carboxamide]	25.34%	43.13%	62.29%	80.69%	100.74%	101.36%	101.87%	101.97%	29.46%	47.54%	68.75%	85.33%	101.35%	101.42%	102.72%	102.97%	59.24%	76.73%	88.40%	92.31%	Dissolution ([2]; pH 6.8, 30 min): 93.23%; Dissolution ([2]; pH 6.8, 45 min): 93.09%; Dissolution ([2]; pH 6.8, 60 min): 93.31%; Dissolution ([2]; pH 6.8, 90 min): 94.02%
CC(C)OC(=O)[C@H](C)N[P@](=O)(OC[C@H]1O[C@@H](n2ccc(=O)[nH]c2=O)[C@](C)(F)[C@@H]1O)Oc1ccccc1 [Sofosbuvir, Isopropyl (2S)-2-[(2R, 3R, 4R, 5R)-5-(2,4-dioxopyrimidin-1-yl)-4-fluoro-3-hydroxy-4-methyl-tetrahydrofuran-2-yl] methoxy-phenoxy-phosphoryl] amino] propanoate]	13.82%	28.77%	44.57%	63.43%	85.39%	86.07%	88.13%	90.79%	15.00%	33.94%	52.46%	74.22%	98.95%	100.44%	101.08%	102.04%	36.18%	65.56%	83.04%	97.55%	Dissolution ([2]; pH 6.8, 30 min): 99.80%; Dissolution ([2]; pH 6.8, 45 min): 100.04%; Dissolution ([2]; pH 6.8, 60 min): 100.47%; Dissolution ([2]; pH 6.8, 90 min): 100.39%
